Test results taken from patent US20090028873A1, “SUBSTITUTED CYCLOHEXANOLS” (AUSPEX PHARMACEUTICALS, INC., priority 2007, published 2009).
Structures can show the parent of a compound that is named as a salt.

Assay: In Vitro Human Liver Microsomal (HLM) Stability Assay
Format: in vitro ADME
Conditions: vs non-isotopically enriched drug, 1 μM, 4 mg per mL liver microsome protein, 37° C.
Description: Liver microsomal stability assays are conducted at 4 mg per mL liver microsome protein with an NADPH-generating system in 2% NaHCO3 (2.2 mM NADPH, 25.6 mM glucose 6-phosphate, 6 units per mL glucose 6-phosphate dehydrogenase and 3.3 mM MgCl2). Test compounds are prepared as solutions in 20% acetonitrile-water and added to the assay mixture (final assay concentration 1 μM) and incubated at 37° C. Final concentration of acetonitrile in the assay should be <1%. Aliquots (50 μL) are taken out at times 0, 0.5, 1, 1.5, and 2 hours, and diluted with ice cold acetonitrile (200 μL) to stop the reactions. Samples are centrifuged at 12,000 RPM for 10 min to precipitate proteins. Supernatants are transferred to micro centrifuge tubes and stored for LC/MS/MS analysis of the degradation half-life of the test compounds.
Results of In Vitro Human Liver Microsomal (HLM) Stability Assay

| SMILES | % increase of HLM degradation half-life 0%-50% | % increase of HLM degradation half-life 50%-150% | also measured |
| --- | --- | --- | --- |
| [2H]O[C@@]1(c2c([2H])c([2H])c([2H])c(OC([2H])([2H])[2H])c2[2H])C([2H])([2H])C([2H])([2H])C([2H])([2H])C([2H])([2H])[C@@]1([2H])C([2H])([2H])N(C([2H])([2H])[2H])C([2H])([2H])[2H] [Example 1, d25-(−)-(1S,2S)-2-[(Dimethylamino)-methyll-1-(3-methoxyphenyl)-cyclohexanol)] | + (0%-50%) |  |  |
| [2H]O[C@]1(c2c([2H])c([2H])c([2H])c(OC([2H])([2H])[2H])c2[2H])C([2H])([2H])C([2H])([2H])C([2H])([2H])C([2H])([2H])[C@]1([2H])C([2H])([2H])N(C([2H])([2H])[2H])C([2H])([2H])[2H] [Example 2] |  |  | % increase of HLM degradation half-life −25%-0% (column −25%-0%): + (−25%-0%) |
| [2H]c1c([2H])c(O)c([2H])c([C@]2(O)C([2H])([2H])C([2H])([2H])C([2H])([2H])C([2H])([2H])[C@@]2([2H])C([2H])([2H])N(C([2H])([2H])[2H])C([2H])([2H])[2H])c1[2H] [Example 3] | + (0%-50%) |  |  |
| COc1cccc(C2(O)CCCCC2CN(C)C)c1 (stereo not drawn) [Example 5, 2-(Dimethylaminomethyl)-1-(3-methoxyphenyl)-cyclohexanol, reference compound] |  | + (50%-150%) |  |
| COc1cccc([C@@]2(O)CCCC[C@@H]2CN(C)C)c1 [Example 6, (1R, 2R)-2-(Dimethylaminomethyl)-1-(3-methoxyphenyl)-cyclohexanol hydrochloride, reference compound] |  | + (50%-150%) |  |
| [2H]C([2H])([2H])Oc1cccc(C2(O)CCCCC2CN(C)C)c1 (stereo not drawn) [Example 8, d3-2-(Dimethylaminomethyl)-1-(3-methoxyphenyl)-cyclohexanol] | + (0%-50%) |  |  |
| [2H]C([2H])([2H])Oc1cccc([C@@]2(O)CCCC[C@@H]2CN(C)C)c1 [Example 9, d3-(1R, 2R)-2-(Dimethylaminomethyl)-1-(3-methoxyphenyl)-cyclohexanol hydrochloride] |  | + (50%-150%) |  |
| [2H]C([2H])([2H])N(CC1CCCCC1(O)c1cccc(OC)c1)C([2H])([2H])[2H] (stereo not drawn) [Example 11] |  | + (50%-150%) |  |
| [2H]C([2H])([2H])N(C[C@H]1CCCC[C@]1(O)c1cccc(OC)c1)C([2H])([2H])[2H] [Example 12, d6-(1R,2R)-2-(Dimethylaminomethyl)-1-(3-methoxyphenyl)-cyclohexanol hydrochloride] |  |  | % increase of HLM degradation half-life >150% (column >150%): + (>150%) |
